Literature values, collected in patent publication US10130578B2, “Topical delivery of skin compositions having low pH” (Johnson & Johnson Consumer Inc., priority 2015, dated 2018).

pKa: 2.9
Substance: Hyaluronic acid
